Assay results reported in patent publication US7235379B2, “Method and medium for the detection/identification of microorgranisms with esterase activity” (Bio Merieux, priority 2000, dated 2007).
Where a name gives a salt, the structure may show the parent alone. Read-outs that look alike come from different tables or passages of the source.

Key:
[1] = system: Candida albicans 033; test: Ex.3 colony coloration, 5-bromo-4-chloro-3-indolyl nonanoate 250 mg/l, DMSO/Tween 20; assay type: cell-based; further: key: 0: no activity; 0.1: trace of coloration; 0.5: very pale coloration; 1: distinct coloration of low intensity; 2: clear coloration of medium intensity; 3: intense coloration; 4: very intense coloration
[2] = system: Staphylococcus epidermidis 009; test: as above; assay type: cell-based; further: key: 0: no activity; 0.1: trace of coloration; 0.5: very pale coloration; 1: distinct coloration of low intensity; 2: clear coloration of medium intensity; 3: intense coloration; 4: very intense coloration
[3] = system: Salmonella paratyphi A 006
Experimental: (§1) The esterase substrate tested is 5-bromo-3-indolyl nonanoate. A 40 g/l stock solution of substrate is prepared in a mixture of 40% dimethyl sulfoxide and 60% Tween 20. A sufficient volume is added to a supercooled MacConkey medium (without neutral red) to give a substrate concentration of 500 mg/l.
(§2) Microorganisms originating from the Applicant's collection were inoculated onto this medium from a 0.5 McFarland suspension by isolation in three quadrants. The dishes were incubated at 37° C. for 48 hours. The colonies formed were examined visually after 24 and 48 hours of incubation. The coloration of these colonies and the intensity of this coloration were noted.
(§3) Note: In the above Examples, the numbers following the strains correspond to the number of each strain referenced in the Applicant's collection. The intensity of coloration corresponds to an arbitrary scale defined as follows: […]

[4] = system: Salmonella spp. 017
Experimental: as §1, §2, §3

[5] = system: Salmonella arizonae 018; test: Ex.1 colony coloration, 5-bromo-3-indolyl nonanoate, DMSO/Tween 20, MacConkey; assay type: cell-based
[6] = system: Salmonella enteritidis 002; test: as above; assay type: cell-based
[7] = system: Pseudomonas aeruginosa 165; test: Ex.2 colony coloration, 5-bromo-3-indolyl nonanoate, methanol/bile salts, MacConkey; assay type: cell-based
Experimental: (§4) The esterase substrate tested is 5-bromo-3-indolyl nonanoate. A 25 g/l stock solution of substrate is prepared in methanol to which 5 g/l of bile salts have been added. A sufficient volume is added to a supercooled MacConkey medium (without neutral red) to give a substrate concentration of 500 mg/l.

[8] = system: Listeria monocytogenes 023; test: Ex.3 colony coloration, 5-bromo-4-chloro-3-indolyl nonanoate 250 mg/l, DMSO/Tween 20; assay type: cell-based; further: key: 0: no activity; 0.1: trace of coloration; 0.5: very pale coloration; 1: distinct coloration of low intensity; 2: clear coloration of medium intensity; 3: intense coloration; 4: very intense coloration
[9] = system: Gram-positive bacteria or yeasts
Experimental: The esterase substrate tested is 5-bromo-4-chloro-3-indolyl nonanoate. A 40 g/l stock solution of substrate is prepared in a mixture of 40% dimethyl sulfoxide and 60% Tween 20. A sufficient volume is added to a supercooled MacConkey medium (without neutral red) to give a substrate concentration of 250 mg/l.
as §2

[10] = system: Salmonella enteritidis 002; test: Ex.2 colony coloration, 5-bromo-3-indolyl nonanoate, methanol/bile salts, MacConkey; assay type: cell-based; on intensity of coloration: key: 0: no activity; 0.1: trace of coloration; 0.5: very pale coloration; 1: distinct coloration of low intensity; 2: clear coloration of medium intensity; 3: intense coloration; 4: very intense coloration
Experimental: as §4

[11] = system: Hafnia alvei 025; test: Ex.4 colony coloration, 5-bromo-3-indolyl nonanoate, DMSO/Tween 20, MacConkey; assay type: cell-based; parameters: key: —: absence of colour or intensity; conditions: 8 ml/l Tergitol 4

**Q.** Which results are given for `CCCCC(CC)CCC(CC(C)C)OS(=O)(=O)O` (stereo not shown) [Tergitol 4, 7-ethyl-2-methyl-4-undecanoate hydrogensulfate or its sodium salt]?
**A.** intensity of coloration ([1]; 0.001 ml/l, 24 h): 0.5; intensity of coloration ([1]; 0.001 ml/l, 48 h): 3; intensity of coloration ([1]; 0.01 ml/l, 24 h): 0.5; intensity of coloration ([1]; 0.01 ml/l, 48 h): 3; intensity of coloration ([1]; 0.1 ml/l, 24 h): 0.5; intensity of coloration ([1]; 0.1 ml/l, 48 h): 3; intensity of coloration ([1]; 1 ml/l (1st col), 24 h): 0.5; intensity of coloration ([1]; 1 ml/l (1st col), 48 h): 3; intensity of coloration ([1]; 1 ml/l (2nd col), 24 h): 0.5; intensity of coloration ([1]; 1 ml/l (2nd col), 48 h): 3; intensity of coloration ([2]; 0.001 ml/l, 24 h): 2; intensity of coloration ([2]; 0.001 ml/l, 48 h): 2; intensity of coloration ([2]; 0.01 ml/l, 24 h): 3; intensity of coloration ([2]; 0.01 ml/l, 48 h): 3; intensity of coloration ([2]; 0.1 ml/l, 24 h): 2; intensity of coloration ([2]; 0.1 ml/l, 48 h): 3; intensity of coloration ([2]; 1 ml/l (1st col), 24 h): 2; intensity of coloration ([2]; 1 ml/l (1st col), 48 h): 2; intensity of coloration ([2]; 1 ml/l (2nd col), 24 h): 0.5; intensity of coloration ([2]; 1 ml/l (2nd col), 48 h): 3; color ([3]; 2 ml/l, 24 h): gray; intensity of coloration ([3]; 2 ml/l, 24 h): 2; color ([3]; 2 ml/l, 48 h): gray; intensity of coloration ([3]; 2 ml/l, 48 h): 2; color ([3]; 4 ml/l, 24 h): gray; intensity of coloration ([3]; 4 ml/l, 24 h): 2; color ([3]; 4 ml/l, 48 h): gray; intensity of coloration ([3]; 4 ml/l, 48 h): 2.5; color ([3]; 8 ml/l, 24 h): gray; intensity of coloration ([3]; 8 ml/l, 24 h): 3; color ([3]; 8 ml/l, 48 h): gray; intensity of coloration ([3]; 8 ml/l, 48 h): 3; color ([3]; 16 ml/l, 24 h): gray; intensity of coloration ([3]; 16 ml/l, 24 h): 2; color ([3]; 16 ml/l, 48 h): gray; intensity of coloration ([3]; 16 ml/l, 48 h): 2; color ([4]; 2 ml/l, 24 h): gray; intensity of coloration ([4]; 2 ml/l, 24 h): 1; color ([4]; 2 ml/l, 48 h): gray; intensity of coloration ([4]; 2 ml/l, 48 h): 3; color ([4]; 4 ml/l, 24 h): gray; intensity of coloration ([4]; 4 ml/l, 24 h): 1.5; color ([4]; 4 ml/l, 48 h): gray; intensity of coloration ([4]; 4 ml/l, 48 h): 3.5; color ([4]; 8 ml/l, 24 h): gray; intensity of coloration ([4]; 8 ml/l, 24 h): 2; color ([4]; 8 ml/l, 48 h): gray; intensity of coloration ([4]; 8 ml/l, 48 h): 3; color ([4]; 16 ml/l, 24 h): gray; intensity of coloration ([4]; 16 ml/l, 24 h): 1; color ([4]; 16 ml/l, 48 h): gray; intensity of coloration ([4]; 16 ml/l, 48 h): 2; color ([5]; 2 ml/l, 24 h): gray; intensity of coloration ([5]; 2 ml/l, 24 h): 2; color ([5]; 2 ml/l, 48 h): gray; intensity of coloration ([5]; 2 ml/l, 48 h): 2.5; color ([5]; 4 ml/l, 24 h): gray; intensity of coloration ([5]; 4 ml/l, 24 h): 3.5; color ([5]; 4 ml/l, 48 h): gray; intensity of coloration ([5]; 4 ml/l, 48 h): 3.5; color ([5]; 8 ml/l, 24 h): gray; intensity of coloration ([5]; 8 ml/l, 24 h): 3.5; color ([5]; 8 ml/l, 48 h): gray; intensity of coloration ([5]; 8 ml/l, 48 h): 3.5; color ([5]; 16 ml/l, 24 h): gray; intensity of coloration ([5]; 16 ml/l, 24 h): 3.5; color ([5]; 16 ml/l, 48 h): gray; intensity of coloration ([5]; 16 ml/l, 48 h): 4; color ([6]; 2 ml/l, 24 h): gray; intensity of coloration ([6]; 2 ml/l, 24 h): 2; color ([6]; 2 ml/l, 48 h): gray; intensity of coloration ([6]; 2 ml/l, 48 h): 2; color ([6]; 4 ml/l, 24 h): gray; intensity of coloration ([6]; 4 ml/l, 24 h): 3; color ([6]; 4 ml/l, 48 h): gray; intensity of coloration ([6]; 4 ml/l, 48 h): 3; color ([6]; 8 ml/l, 24 h): gray; intensity of coloration ([6]; 8 ml/l, 24 h): 3.5; color ([6]; 8 ml/l, 48 h): gray; intensity of coloration ([6]; 8 ml/l, 48 h): 3.5; color ([6]; 16 ml/l, 24 h): gray; intensity of coloration ([6]; 16 ml/l, 24 h): 3.5; color ([6]; 16 ml/l, 48 h): gray; intensity of coloration ([6]; 16 ml/l, 48 h): 3.5; color ([7]; 2 ml/l, 24 h): gray; intensity of coloration ([7]; 2 ml/l, 24 h): 3.5; color ([7]; 2 ml/l, 48 h): gray; intensity of coloration ([7]; 2 ml/l, 48 h): 3.5; color ([7]; 4 ml/l, 24 h): gray; intensity of coloration ([7]; 4 ml/l, 24 h): 4; color ([7]; 4 ml/l, 48 h): gray; intensity of coloration ([7]; 4 ml/l, 48 h): 4; color ([7]; 8 ml/l, 24 h): gray; intensity of coloration ([7]; 8 ml/l, 24 h): 4; color ([7]; 8 ml/l, 48 h): gray; intensity of coloration ([7]; 8 ml/l, 48 h): 4; color ([7]; 16 ml/l, 24 h): gray; intensity of coloration ([7]; 16 ml/l, 24 h): 4; color ([7]; 16 ml/l, 48 h): gray; intensity of coloration ([7]; 16 ml/l, 48 h): 4; intensity of coloration ([8]; 0.001 ml/l, 24 h): 2; intensity of coloration ([8]; 0.001 ml/l, 48 h): 2; intensity of coloration ([8]; 0.01 ml/l, 24 h): 2.5; intensity of coloration ([8]; 0.01 ml/l, 48 h): 3; intensity of coloration ([8]; 0.1 ml/l, 24 h): 2; intensity of coloration ([8]; 0.1 ml/l, 48 h): 3; intensity of coloration ([8]; 1 ml/l (1st col), 24 h): 2; intensity of coloration ([8]; 1 ml/l (1st col), 48 h): 3; intensity of coloration ([8]; 1 ml/l (2nd col), 24 h): 2; intensity of coloration ([8]; 1 ml/l (2nd col), 48 h): 3; effect on the expression of the esterase activity ([9]; 0.001 to 1 ml/l tested): positive effect; growth on culture medium ([9]; excessive Tergitol 4 concentrations): cannot develop on a culture medium; color ([10]; 2 ml/l, 24 h): gray; intensity of coloration ([10]; 2 ml/l, 24 h): 2; color ([10]; 2 ml/l, 48 h): gray; intensity of coloration ([10]; 2 ml/l, 48 h): 3; color ([10]; 4 ml/l, 24 h): gray; intensity of coloration ([10]; 4 ml/l, 24 h): 3; color ([10]; 4 ml/l, 48 h): gray; intensity of coloration ([10]; 4 ml/l, 48 h): 3; color ([10]; 8 ml/l, 24 h): gray; intensity of coloration ([10]; 8 ml/l, 24 h): 0.5; color ([10]; 8 ml/l, 48 h): gray; intensity of coloration ([10]; 8 ml/l, 48 h): 2; color ([10]; 16 ml/l, 24 h): gray; intensity of coloration ([10]; 16 ml/l, 24 h): 0.1; color ([10]; 16 ml/l, 48 h): gray; intensity of coloration ([10]; 16 ml/l, 48 h): 1; color ([11]; 24 h): —; color ([11]; 48 h): —
